Source: PubChem BioAssay (NCI)
Where “and” joins values, the source holds several entries; their conditions need not be identical. Identical values can stand only once.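 Protocol summary: plate cells (96-well), add compound at 5 concentrations, incubate 48 h, interpolate endpoints linearly. GI50 = concentration required for 50% inhibition of growth. TGI is the concentration that stops growth completely.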

Key:
Test in all cases: growth of human tumour cells (NCI), 48 h
786-0 renal = test system: 786-0 renal
A498 renal = test system: A498 renal
A549 NSCLC = test system: A549 NSCLC
ACHN renal = test system: ACHN renal
BT-549 breast = test system: BT-549 breast
CAKI-1 renal = test system: CAKI-1 renal
CCRF-CEM leukemia = test system: CCRF-CEM leukemia
COLO 205 colon = test system: COLO 205 colon
DU-145 prostate = test system: DU-145 prostate
EKVX NSCLC = test system: EKVX NSCLC
HCC-2998 colon = test system: HCC-2998 colon
HCT-116 colon = test system: HCT-116 colon
HCT-15 colon = test system: HCT-15 colon
HL-60(TB) leukemia = test system: HL-60(TB) leukemia
HOP-62 NSCLC = test system: HOP-62 NSCLC
HS 578T breast = test system: HS 578T breast
HT29 colon = test system: HT29 colon
IGROV1 ovarian = test system: IGROV1 ovarian
K-562 leukemia = test system: K-562 leukemia
KM12 colon = test system: KM12 colon
LOX IMVI melanoma = test system: LOX IMVI melanoma
M14 melanoma = test system: M14 melanoma
MALME-3M melanoma = test system: MALME-3M melanoma
MCF7 breast = test system: MCF7 breast
MDA-MB-231 breast = test system: MDA-MB-231 breast
MDA-MB-435 = test system: MDA-MB-435
MDA-N = test system: MDA-N
MOLT-4 leukemia = test system: MOLT-4 leukemia
NCI-H226 lung = test system: NCI-H226 lung
NCI-H23 lung = test system: NCI-H23 lung
NCI-H460 lung = test system: NCI-H460 lung
NCI-H522 lung = test system: NCI-H522 lung
NCI/ADR-RES ovarian = test system: NCI/ADR-RES ovarian
OVCAR-3 ovarian = test system: OVCAR-3 ovarian
OVCAR-4 ovarian = test system: OVCAR-4 ovarian
OVCAR-5 ovarian = test system: OVCAR-5 ovarian
OVCAR-8 ovarian = test system: OVCAR-8 ovarian
PC-3 prostate = test system: PC-3 prostate
RPMI-8226 leukemia = test system: RPMI-8226 leukemia
RXF 393 renal = test system: RXF 393 renal
SF-268 CNS = test system: SF-268 CNS
SF-295 CNS = test system: SF-295 CNS
SF-539 CNS = test system: SF-539 CNS
SK-MEL-2 melanoma = test system: SK-MEL-2 melanoma
SK-MEL-28 melanoma = test system: SK-MEL-28 melanoma
SK-MEL-5 melanoma = test system: SK-MEL-5 melanoma
SK-OV-3 ovarian = test system: SK-OV-3 ovarian
SN12C renal = test system: SN12C renal
SNB-19 CNS = test system: SNB-19 CNS
SNB-75 CNS = test system: SNB-75 CNS
SR leukemia = test system: SR leukemia
SW-620 colon = test system: SW-620 colon
T-47D breast = test system: T-47D breast
U251 CNS = test system: U251 CNS
UACC-257 melanoma = test system: UACC-257 melanoma
UACC-62 melanoma = test system: UACC-62 melanoma
UO-31 renal = test system: UO-31 renal

CN1CCN(c2ccc3[nH]c(C4=C(O)c5nc(CCl)n(C)c5C(=O)C4=O)nc3n2)CC1
GI50 (786-0 renal): 6.05 µM
TGI (786-0 renal): 50 µM and > 100 µM
TGI (A498 renal): 22.1 µM
TGI (A549 NSCLC): 50 µM and > 100 µM
GI50 (ACHN renal): 5.13 µM
TGI (ACHN renal): 30.7 µM and 43.1 µM
GI50 (BT-549 breast): 17.4 µM
TGI (BT-549 breast): 19.3 µM and 40.4 µM
GI50 (CAKI-1 renal): 24.2 µM
TGI (CAKI-1 renal): 37.1 µM and 74.4 µM
GI50 (CCRF-CEM leukemia): 15 µM
TGI (CCRF-CEM leukemia): > 50 µM and 36.4 µM
GI50 (COLO 205 colon): 1.79 µM
TGI (COLO 205 colon): 28.1 µM and 3.62 µM
GI50 (DU-145 prostate): 21.9 µM
TGI (DU-145 prostate): 22.4 µM and 67 µM
GI50 (EKVX NSCLC): 15.9 µM
TGI (EKVX NSCLC): 36.9 µM and 40.1 µM
TGI (HCC-2998 colon): 21.4 µM
GI50 (HCT-116 colon): 15.2 µM
TGI (HCT-116 colon): 16.1 µM and > 100 µM
TGI (HCT-15 colon): 50 µM and > 100 µM
GI50 (HL-60(TB) leukemia): 2.87 µM
TGI (HL-60(TB) leukemia): > 50 µM and 8.97 µM
GI50 (HOP-62 NSCLC): 20.7 µM
TGI (HOP-62 NSCLC): 19.7 µM and 53.5 µM
TGI (HS 578T breast): 75.5 µM
GI50 (HT29 colon): 13.7 µM
TGI (HT29 colon): 25.9 µM and 37.1 µM
GI50 (IGROV1 ovarian): 24.5 µM
TGI (IGROV1 ovarian): 16 µM and 47.9 µM
GI50 (K-562 leukemia): 2.84 µM
TGI (K-562 leukemia): 50 µM and > 100 µM
GI50 (KM12 colon): 15.9 µM
TGI (KM12 colon): 21 µM and 35.9 µM
GI50 (LOX IMVI melanoma): 3.07 µM
TGI (LOX IMVI melanoma): 15.2 µM and 7.43 µM
GI50 (M14 melanoma): 19.6 µM
TGI (M14 melanoma): 20.1 µM and 52.2 µM
GI50 (MALME-3M melanoma): 13 µM
TGI (MALME-3M melanoma): 11.4 µM and 30 µM
TGI (MCF7 breast): 18.5 µM
GI50 (MDA-MB-231 breast): 3.99 µM
TGI (MDA-MB-231 breast): 25 µM and 14.8 µM
GI50 (MDA-MB-435): 12.6 µM
TGI (MDA-MB-435): 19.3 µM and 30.8 µM
GI50 (MDA-N): 26.5 µM
TGI (MDA-N): 17.4 µM and > 100 µM
GI50 (MOLT-4 leukemia): 2.25 µM
TGI (MOLT-4 leukemia): 50 µM and 7.68 µM
GI50 (NCI-H226 lung): 18.3 µM
TGI (NCI-H226 lung): 36.2 µM and 37.7 µM
GI50 (NCI-H23 lung): 18.9 µM
TGI (NCI-H23 lung): 30.4 µM and 44.3 µM
TGI (NCI-H460 lung): 49.3 µM
GI50 (NCI-H522 lung): 3.54 µM
TGI (NCI-H522 lung): 3.29 µM and 12.2 µM
GI50 (NCI/ADR-RES ovarian): 88.6 µM
TGI (NCI/ADR-RES ovarian): > 100 µM
TGI (OVCAR-3 ovarian): 31.3 µM and 68.6 µM
TGI (OVCAR-4 ovarian): 44.7 µM and 33.7 µM
GI50 (OVCAR-5 ovarian): 20 µM
TGI (OVCAR-5 ovarian): 34.5 µM and 52.7 µM
GI50 (OVCAR-8 ovarian): 4.83 µM
TGI (OVCAR-8 ovarian): 16.2 µM and 29.2 µM
GI50 (PC-3 prostate): 11.7 µM
TGI (PC-3 prostate): 50 µM and 29.1 µM
GI50 (RPMI-8226 leukemia): 3.14 µM
TGI (RPMI-8226 leukemia): 50 µM and 15.2 µM
GI50 (RXF 393 renal): 3.49 µM
TGI (RXF 393 renal): 9.92 µM and 16.6 µM
TGI (SF-268 CNS): 49.1 µM
GI50 (SF-295 CNS): 24 µM
TGI (SF-295 CNS): 50 µM and 56.3 µM
GI50 (SF-539 CNS): 2.17 µM
TGI (SK-MEL-2 melanoma): 23.5 µM
GI50 (SK-MEL-28 melanoma): 16.1 µM
TGI (SK-MEL-28 melanoma): 50 µM and 34.8 µM
TGI (SK-MEL-5 melanoma): 50 µM
GI50 (SK-OV-3 ovarian): 19.8 µM
TGI (SK-OV-3 ovarian): 50 µM and 51.6 µM
GI50 (SN12C renal): 16.9 µM
TGI (SN12C renal): 20.5 µM and > 100 µM
GI50 (SNB-19 CNS): 11.8 µM
TGI (SNB-19 CNS): 16.7 µM and 32.6 µM
TGI (SNB-75 CNS): 18 µM
TGI (SR leukemia): 50 µM
GI50 (SW-620 colon): 3.61 µM
TGI (SW-620 colon): 50 µM and > 100 µM
GI50 (T-47D breast): 2.15 µM
TGI (T-47D breast): 3.99 µM and 6.95 µM
GI50 (U251 CNS): 2.03 µM
TGI (U251 CNS): 16.3 µM and 4.12 µM
TGI (UACC-257 melanoma): 31.9 µM
GI50 (UACC-62 melanoma): 2.46 µM
TGI (UACC-62 melanoma): 19.4 µM and 7.37 µM
GI50 (UO-31 renal): 21.8 µM
TGI (UO-31 renal): 13.3 µM and > 100 µM
